Reference: patent US20220110902A1, “Methods of treating amyloid-beta peptide diseases” (Ecole Polytechnique Federale de Lausanne, priority 2016, published 2022)
Entries after “also recorded” stand apart in the source; their conditions may differ.

Key:
[1] = test system: CL2122 worms; assay: Mobility of CL2122 control worms; format: in vivo, C. elegans; conditions: CL2122, day 1 to 4 and day 8 of adulthood; NR 1 mM, AZD 0.3 μM
Protocol: Doxycycline was obtained from Sigma-Aldrich and dissolved in water. For experiments, a final concentration of 15 μg/mL was used. Olaparib (AZD2281) was dissolved in DMSO to experimental concentrations of 300 nM. Nicotinamide Riboside triflate (NR) was custom synthesized by Novalix (www.novalix-pharma.com/) and dissolved in water, and used at a final concentration of 1 mM. Compounds were added just before pouring the plates. For phenotyping experiments, parental F0 L4 worms were allowed to reach adulthood and lay eggs on the treatment plates. The deriving F1 worms were therefore exposed to compounds during the full life from eggs until death. For RNA analysis experiments, synchronized L1 worms were exposed to the compounds until harvest. To ensure a permanent exposure to the compound, plates were changed twice a week.
Mobility: C. elegans movement analysis was performed as described, starting from day 1 of adulthood, using the Movement Tracker software. The experiments were repeated at least twice.

[2] = test system: SH-SY5Y neuroblastoma cell line expressing the APP Swedish K670N/M671L double mutation (APPSwe); assay: Immunostaining of intracellular Aβ deposits in APPSwe SH-SY5Y cells; format: cell-based, human
Protocol: The SH-SY5Y neuroblastoma cell line expressing the APP Swedish K670N/M671L double mutation (APPSwe) was a kind gift of Prof. Cedazo-Minguez (Karolinska Institute, Sweden). Cells were grown in DMEM/F-12, supplemented with 10% fetal bovine serum (FBS, Gibco), GlutaMAX (100×, Gibco) and penicillin/streptomycin (1×, Gibco). Cells were selected in 4 μg/mL Geneticin® Selective Antibiotic (G418 Sulfate, Sigma) and grown for three generations before experiments with cells plated and passaged at 4×10^3 cells/ml and 60% confluence, respectively. Cells were cultured at 37° C. under a 5% CO2 atmosphere and tested for mycoplasma using Mycoprobe (#CUL001B, R&D systems) following the manufacturer's instructions. Cells were treated with 10 μg/mL dox, NR 1 or 3 mM, ISRIB 0.5 μM (Sigma), as indicated for 24 hours before cell harvesting or fixation. For the immunostaining, cells were fixed with 1× Formal-Fixx (Thermo Scientific) for 15 min. After 15 min permeabilization with 0.1% Triton X-100, cells were blocked in PBS supplemented with 5% fetal bovine serum for 1 hour and immunostained overnight, at 4° C., with the anti-β-Amyloid 1-42 (1:100, Millipore AB5078P). The secondary antibody was coupled to the Alexa-488 fluorochrome (Thermo Scientific), and nuclei were stained with DAPI (Invitrogen, D1306). After washing in PBS, cell slides were mounted with Dako mounting medium (Dako, S3023) and examined with a Zeiss LSM 700 confocal microscope (Carl Zeiss MicroImaging) equipped with a Plan-Apochromat 40×/1.3 NA oil immersion objective lens using a 488 nm laser. Laser power was set at the lowest intensity allowing clear visualization of the signal. Imaging settings were maintained with the same parameters for comparison between different experimental conditions.
The SH-SY5Y neuroblastoma cell line expresses the APP Swedish K670N/M671L double mutation (APPSwe) (Zheng et al., 2011) and accumulates intracellular Aβ amyloid aggregates. Cells were grown in DMEM/F-12, supplemented with 10% fetal bovine serum (FBS, Gibco), GlutaMAX (100×, Gibco) and penicillin/streptomycin (1×, Gibco). Cells were selected in 4 μg/mL Geneticin® Selective Antibiotic (G418 Sulfate, Sigma) and grown for three generations before experiments with cells plated and passaged at 4×10{right arrow over ( )}3 cells/ml and 60% confluence, respectively. Cells were cultured at 37° C. under a 5% CO2 atmosphere and tested for mycoplasma using Mycoprobe (#CUL001B, R&D systems), following the manufacturer's instructions. Myriocin was dissolved in DMSO.
Cells were treated with 10 uM Myriocin and Fumonisin B1 for 24 hours before harvesting or fixation (FIG. 3A). For immunostaining, cells were fixed with 1× Formal-Fixx (Thermo Scientific) for 15 min. […]

[3] = test system: old mice; assay: Myriocin treatment of aged mice: muscle function and amyloid deposits; format: in vivo, mouse; conditions: 0.4 mg/kg intra peritoneal injection for 8 weeks
Text: FIG. 14A is a graph showing that inhibition of ceramide synthesis resolves Aβ proteotoxic stress in human cells. […] (FIG. 14C) Myriocin, administered as described in FIG. 14B, improves grip strength, exercise capacity (distance run), balance (latency square in beamwalk), and movement coordination (rotarod latency) in old mice. (FIG. 14D) Myriocin treatment reduces amyloid deposits, as shown by immunodetection with Thioflavin S (ThS), in the muscle tissues of old mice.

O=C(c1cc(Cc2n[nH]c(=O)c3ccccc23)ccc1F)N1CCN(C(=O)C2CC2)CC1 [AZD, Olaparib, reference compound]
fitness (mobility) of control strain [1]: only improved CL2122 fitness during aging

CCCCCCC(=O)CCCCCC/C=C/C[C@@H](O)[C@H](O)[C@@](N)(CO)C(=O)O [Myriocin, (E,2S,3R,4R)-2-amino-3,4-dihydroxy-2-(hydroxymethyl)-14-oxoicos-6-enoic acid]
intracellular Aβ deposits ([2]; 10 uM, 24 hours): significantly reduced; also recorded: markedly reduced
balance (latency square in beamwalk) ([3]; mice 18 months or older): improves
exercise capacity (distance run) ([3]; mice 18 months or older): improves
grip strength ([3]; mice 18 months or older): improves
movement coordination (rotarod latency) ([3]; mice 18 months or older): improves
amyloid deposits in muscle tissues, Thioflavin S (ThS) ([3]; old mice): reduces

NC(=O)c1ccc[n+]([C@@H]2O[C@H](CO)[C@@H](O)[C@H]2O)c1 [NR, Nicotinamide Riboside triflate]
fitness (mobility) of control strain [1]: only improved CL2122 fitness during aging
intracellular Aβ deposits (anti-β-Amyloid 1-42 immunodetection) ([2]; 24 h, dox 10 μg/mL, NR 3 mM): remarkable reduction
